Here are results for ten molecules from ChEMBL document CHEMBL1145438, “Synthesis and matrix metalloproteinase (MMP)-12 inhibitory activity of ageladine A and its analogs” (Bioorg Med Chem Lett, 2007).

The IC50 is the midpoint of a concentration-inhibition curve. A higher IC50 goes with a need for much substance.

The target in the assay is Macrophage metalloelastase (Homo sapiens, UniProt P39900). The assay can be described thus: Inhibition of MMP12.
Macrophage metalloelastase, sequence (P39900 whole entry): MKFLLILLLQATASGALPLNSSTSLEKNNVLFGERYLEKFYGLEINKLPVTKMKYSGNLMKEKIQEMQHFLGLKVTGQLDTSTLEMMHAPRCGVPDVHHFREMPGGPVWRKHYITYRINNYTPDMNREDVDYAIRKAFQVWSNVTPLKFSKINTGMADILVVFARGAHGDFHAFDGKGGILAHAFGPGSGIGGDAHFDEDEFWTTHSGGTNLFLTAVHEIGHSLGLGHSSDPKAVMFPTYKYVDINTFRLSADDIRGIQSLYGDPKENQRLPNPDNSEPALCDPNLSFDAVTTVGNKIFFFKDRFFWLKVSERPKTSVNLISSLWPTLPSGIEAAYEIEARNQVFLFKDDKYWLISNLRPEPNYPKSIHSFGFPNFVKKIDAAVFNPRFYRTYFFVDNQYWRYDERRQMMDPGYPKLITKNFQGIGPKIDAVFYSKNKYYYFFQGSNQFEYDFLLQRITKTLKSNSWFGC
Turning to `CNc1nc2c(-c3cc(Br)c(Br)[nH]3)nccc2n1C`, the IC50 is more than 100 µM.
With `CN(C)c1nc2c(-c3cc(Br)c(Br)[nH]3)nccc2[nH]1`, the IC50 was more than 100 µM.
Under `Nc1nc2c(-c3ccc[nH]3)nccc2[nH]1` stands more than 100 µM; under `Cn1c(-c2nccc3[nH]c(N)nc23)cc(Br)c1Br`, more than 100 µM.
`Nc1nc2c(-c3cc(Br)c[nH]3)nccc2[nH]1`: the IC50 was more than 100 µM.
Under `Cn1c(N)nc2c(-c3cc(Br)c(Br)[nH]3)nccc21` stands 56.9 µM.
As for `Brc1cc(-c2nccc3[nH]cnc23)[nH]c1Br`, the figure is 43.6 µM; as for `CNc1nc2c(-c3cc(Br)c(Br)[nH]3)nccc2[nH]1`, 10.4 µM.
Turning to `Nc1nc2c(-c3ccc(Br)[nH]3)nccc2[nH]1`, the IC50 is more than 100 µM.
Molecule `Nc1nc2c(-c3cc(Br)c(Br)[nH]3)nccc2[nH]1` [AGELADINE A] displayed an IC50 of 3.66 µM.
